In one data set the test system is MDA-MB-468. The experiment in a line: Drug cytotoxicity assay (cell count after 4 days in test media), MDA-MB-468. The format is cell-based. Conditions: Homo sapiens, 96 h, 5-FU alone.
The subject of data set [1] is Human Breast Cancer Xenografts (MDA-MB-468). As to the kind of experiment: 5-FU/HA adjuvant therapy efficacy, 6-week study. The class given is in vivo. On the procedure:
(§1) One of the most commonly used treatment regimens for human breast cancer is cyclophosphamide, methotrexate and 5-fluorouacil which is administered on day 1 and 8 of a 28 day cycle. In human breast cancer the initial treatment regimen is for 6 cycles at which time the patient condition is re-assessed, therefore we tried to simulate the human treatment regimen as closely as possible by exposing the mice to 6 cycles (6 months) of treatment in a long term efficacy study and a 6 cycles (6 week) short term efficacy study. Considering the life cycle of a mouse is approximately 2 years we commenced both short-term and long-term treatment protocols as shown in Table 8.
(§2) Mice were randomly divided into 7 groups of 8 animals per group for the short term study and 5 groups of 8 animals for the long term study (refer to Table 8 for dosage and treatment administration schedule).
(§3) Animals were weighed and tumour volumes measured on the day of treatment application for long term study as described in Example 8. In the 6-week study animals were weighed and tumour volumes measured on a daily basis. […] It has been experimentally proven that stress can be a major factor in a patients response to chemotherapy (Shackney et al, 1978), therefore we ensured that equal numbers of mice were allocated to each cage, the animal number per cage varied from 5-8 depending on the stage of experimentation.
(§4) The experimental end-point occurred when the animal had to be euthanised due to degree of disease progression or when the 6 month (long term) or 6 week (short term) treatment regimen was completed. Due to the animal ethics guidelines the animals were monitored fortnightly by an independent animal ethics officer who assessed the degree of disease progression.
The tissue was fixed for 16-24 h before histological processing. Fixed tissue was dehydrated stepwise to 100% ethanol and embedded in paraffin blocks from which 2-4 μm sections were placed on glass microscope slides. Staining the tissue sections with a haematoxylin nuclear stain and eosin cytoplasmic stain highlighted any pathological features that could indicate treatment toxicity.
Nine to 11 lymph nodes were collected per animal, ensuring that all nodes which drained the tumour area were collected. There are currently two methods used for the detection of lymph node metastasis:
The haematoxylin and eosin stained lymph nodes were examined by Dr P. Allen (certified pathologist) where each node was microscopically examined for the presence of tumour cells. The CEA immunostained lymph nodes were microscopically examined, where any positively stained nodes were counted and considered positive for lymph node metastasis.
Tumour volume was monitored on a daily or weekly basis by calliper measurements and tumour volume calculated as previously described in example 8.
One of the most common toxic effects of 5-FU is on the gastro-intestinal tract where haemorrhagic enteritis and intestinal perforation can occur (Martindale, 1993). Animals were monitored daily for GI tract upset such as diarrhoea and weekly for more severe toxicity manifestations such as weight loss. Weight loss was monitored by calculating net body weight as estimated by subtracting tumour weight, which was calculated as 1 g×tumour volume (cm^3) as cited in Shibamoto et al, 1996.

Data set [2] has the same test system. The experiment in a line: 5-FU/HA adjuvant therapy efficacy, 6-month study. The class given is in vivo. On the procedure: as §1, §2, §3, §4
The TDT is the time taken (days) for a tumour to double in mass or cell number, a parameter of tumour growth which is simple to measure and can be easily related to clinical tumour behaviour in conceptional terms (Shackney et al, 1978). By monitoring the tumour doubling time it is often possible to evaluate tumour chemotherapeutic response, as slowly growing tumours tend to respond poorly to chemotherapy (Schabel, 1975).
The overall patient survival time was calculated as the time (days or weeks) that the animal lived after the commencement of treatment.

Data set [3] is described as follows: 1H NMR titration and diffusion experiments of 5-FU with HA. The format is physicochemical. Conditions: 600 MHz 1H NMR titration; HA 750 kDa, 3 mg/mL; pH 8.8 to 9.1. The method, then:
To further investigate the nature of the interaction between HA and chemotherapeutic drugs 1H Nuclear Magnetic Resonance (NMR) spectroscopy was used. Deuterium oxide (^2H2O (99.96%)) was obtained from Cambridge Isotope Laboratories. MTX was obtained from Faulding Pharmaceuticals and 5-FU and HA stock solutions were prepared as described previously.
Spectra were recorded at 298 K on a Brüker DRX spectrometer operating at 600 MHz with a shielded gradient unit. The 2D experiments were recorded in phase-sensitive mode using time-proportional phase incrementation for quadrature detection in the t1 dimension (Marion & Wüthrich, 1983). The 2D experiments included TOCSY sequence using a MLEV-17 spin lock sequence (Bax & Davis, 1985) with a mixing time of 120 ms; NOESY (Kumar et al., 1980) with mixing times of 250 and 400 ms and ROESY spectrum with a mixing time of 250 ms. Temperature calibration of the probe was achieved by comparison to ethylene glycol chemical shifts. All chemical shifts (ppm) were referenced to the methyl resonance of 4,4-dimethyl-4-silapentane-1-sulfonate (DSS, 0 ppm).
NMR diffusion experiments were acquired on a Brüker AMX spectrometer equipped with a gradient control unit operating at 500 MHz. All experiments were acquired with 16 or 64 scans at 298 K over 16K of data points and 7575 Hz. A gradient strength of 15.44 G/cm was employed for the diffusion experiments. […]

For data set [4] the following is noted: iv 10.5 mg/kg (400 mg/m^2), within 30 min; cited from earlier work.
For data set [5] the following is noted: in vivo; cited from earlier work.
Data set [6] is described as follows: 1H NMR deuterium exchange and transferred NOESY of MTX with HA. The format is physicochemical.
Excerpt: Solvent suppression of the water signal for NOESY, ROESY and TOCSY experiments was achieved using a modified WATERGATE sequence (Piotto et al., 1992) in which two gradient pulses of 1 ms was applied on either side of a binomial 3-9-19 pulse. Spectra was routinely acquired over 6024 Hz with 4096 complex data points in F2 and 512 increments in the F1 dimension, with 32 scans per increment for the TOCSY experiments and 80 scans for the NOESY. Slowly exchanging NH protons were detected by acquiring a series of one-dimensional (1D) spectra acquired over 16K data points and with 32 scans. […]
The subject of data set [7] is murine Lewis lung xenografts. Conditions: low dose of 0.01 mg/kg; cited from earlier work.
Setting [8] is: control schedule HA D1,3 / 5-FU D 2, 4 of 7 day cycle.

“And” between values parts separate entries of the source, which are not always exact repeats. Equal values may be shown once.

For the molecule `O=c1[nH]cc(F)c(=O)[nH]1` [5-FU, 5-fluorouracil], the IC50 – broadly, the concentration that inhibits the measured activity by half – with MDA-MB-468 was more than 50 µM. In addition, in data set [1], the “primary tumour at end of the 6 week study compared with the saline group” value is listed as “significantly smaller tumours”. Besides, in data set [1] (setting [8]), the “Number of animal completing treatment” value is recorded as 8/8 and the “TDT Mean ± SEM” value is 15.3 ± 2.5 days. Moreover, in data set [1] (days 1 & 2 of 7 day cycle), the “% of animals with lymph node metastasis” value is listed as 100%, the “% of lymph node involved per animal mean ± SEM” value stood at 14.3 ± 2.9% and the “Number of new tumours” value was determined as 1. Further, the “Number of animal completing treatment” value in data set [1] (days 1 & 2 of 7 day cycle (HA followed by 5-FU: days 1-4)) was 8/8. Further, in data set [1] (days 1 & 2 of 7 day cycle (HA followed by 5-FU: days 1-4), 30 mg/kg 5-FU, 12.5 mg/kg HA), the “TDT Mean ± SEM” value was 32.1 ± 3.5 days. In data set [2] (6-month study, % of animals), the “Experimental endpoint: immobilsed” value amounted to 62.5% immobilsed. In addition, the “mice experiencing a cure (tumours fully necrosed and dropped off)” value in data set [2] (6-month study, after approximately 12 weeks of treatment) is reported as “did not experience a “cure””. Moreover, in data set [2] (6-month study, days 1 & 8 of 28 day cycle (HA followed by 5-FU: days 1, 2, 8, 9)), the “TDT Mean ± SEM” value worked out at 22.7 ± 2.9 days. Moreover, in data set [2] (mouse, in vivo), the “Experimental endpoint: metabolic stress” value is 37.5% metabolic. In data set [3], the “interaction of 5-FU with HA (chemical shift of CH peak)” value was “does not appear to be interacting”. In data set [4], the peak plasma level is 8 μg/ml and 61 μM. Further, the cure rate in data set [5] was 26%.
As to `CN(Cc1cnc2nc(N)nc(N)c2n1)c1ccc(C(=O)N[C@@H](CCC(=O)O)C(=O)O)cc1` [MTX, methotrexate], in data set [6] (MTX and HA in 0.5% w/v Na2CO3 (pH 9), deuterium oxide added), the “time for all amine hydrogens of MTX to exchange with deuterium” value was not above 4 min. Moreover, the “interaction between MTX and HA (transferred NOESY)” value in data set [6] (MTX/HA, no crosspeaks) is given as “negligible interaction”.
With `CO[C@@]12[C@H](COC(N)=O)C3=C(C(=O)C(C)=C(N)C3=O)N1C[C@@H]1N[C@@H]12` [mitomycin C], the anti-tumour activity result in data set [7] was “did not demonstrate anti-tumour activity”.

The record behind these values is patent publication US8741970B2, “Composition and method for the enhancement of the efficacy of drugs” (Alchemia Oncology Pty Limited, priority 1999, dated 2014).
